Data as given in US20260262647A1, “Synergistic Compositions Containing Guanidine” (Thor GmbH, priority 2023, published 2026).
Where “and” joins values, the source holds several entries; their conditions need not be identical. Equal values may be shown once.

How the values were obtained:
[1] = tested on: bacteria mixture B; assay: Emulsion paint inoculated once with bacteria mixture B, semiquantitative growth evaluation; format: cell-based; design: key: 0: No growth; Minimal growth, 1 to 10 colonies visible over the entire streak; 2: Light growth, maximum 100 colonies; Moderate growth, maximum 300 to 400 colonies; Uniform growth, >400 colonies, single colonies still clearly recognizable; 5: Heavy growth, too many colonies to count, but no growth over the entire streak; 6: Full growth, barely any single colonies still apparent, growth over the entire streak; settings: +6000 ppm guanidine hydrochloride (3708 ppm guanidine)
From the text: In examples 35 to 38 below, synergistic interaction between guanidine and antimicrobial substances with respect to microbial infestation was studied using an emulsion paint and a laundry detergent or cleaning composition by adding particular amounts of guanidine salts and isothiazolinones and examining their stability against microbial infestation: […] The laundry detergent was a heavy-duty laundry detergent without preservatives (pH 8.1), and the cleaning composition was an all-purpose detergent without preservatives (pH 7.6), each likewise made in the laboratory, without addition of the otherwise usual conventional preservatives. To each paint was added—individually and in combination—particular concentrations of guanidinium hydrochloride, benzisothiazolinone (BIT), and a mixture of chloromethylisothiazolinone (CIT) and methylisothiazolinone (MIT). The laundry detergent and the cleaning composition were admixed with particular concentrations of guanidinium hydrochloride and benzisothiazolinone (BIT). The resultant batches of the paint thus prepared were inoculated with a mixture of different bacteria species (bacteria mixture B); the batches of the laundry detergent and cleaning compositions thus prepared were inoculated with a yeast mixture. • Pseudomonas spp. (Pseudomonas oleovorans group) DSM 33933 • Pseudomonas aeruginosa DSM 33935 • Pseudomonas oleovorans DSM 33936 • Pseudomonas spec. DSM 33937 • Pseudomonas aeruginosa DSM 33938 […] The cell suspension of the bacteria mixture was produced by growing the individual bacteria at 30° C. for 24 h in liquid culture on a shaker. The growth medium used for the bacteria was Müller-Hinton liquid medium. After growing, the individual liquid cultures were centrifuged, and the cells were resuspended in physiological saline solution. […] The cell count of the inoculum was determined in each case by chamber counting. […] The streaked agar plates were then incubated at 30° C. for 48 hours (bacteria) or at 25° C. for 72 hours (yeasts). After incubation, the bacterial or yeast colonies that have grown on the agar plates were visually evaluated and quantified according to the following scheme: [table]

[2] = tested on: Pseudomonas spec. DSM 115322; assay: Minimum inhibitory concentrations and synergy index in Müller-Hinton broth; format: cell-based; settings: for QA: Concentration of guanidine as the sole agent that shows an endpoint: guanidine (added as guanidine hydrochloride) alone, 48 hours at 30° C.

SMILES: N=C(N)N [guanidine]
- Bacterial growth ([1]; Example 35, emulsion paint, Day 1): 6
- Bacterial growth ([1]; Example 35, emulsion paint, Day 6): 6
- Bacterial growth ([1]; Example 36, emulsion paint, Day 1): 6
- Bacterial growth ([1]; Example 36, emulsion paint, Day 6): 6
- QA: Concentration of guanidine as the sole agent that shows an endpoint ([2]; MHB adjusted to pH 5.5): 12359 ppm
- QA: Concentration of guanidine as the sole agent that shows an endpoint ([2]; MHB): 9269 ppm and 9105 ppm
- Synergy index Qa/QA + Qb/QB ([2]; guanidine and AEPD): 1.00
- Synergy index Qa/QA + Qb/QB ([2]; guanidine and AMP): 1.00
- Synergy index Qa/QA + Qb/QB ([2]; guanidine and BBIT): 1.00
- Synergy index Qa/QA + Qb/QB ([2]; guanidine and BIT): 1.00
- Synergy index Qa/QA + Qb/QB ([2]; guanidine and DBDCB): 1.00
- Synergy index Qa/QA + Qb/QB ([2]; guanidine and DBNPA): 1.00
- Synergy index Qa/QA + Qb/QB ([2]; guanidine and EDTA): 1.00
- Synergy index Qa/QA + Qb/QB ([2]; guanidine and EHG): 1.00
- Synergy index Qa/QA + Qb/QB ([2]; guanidine and HEDP): 1.00
- Synergy index Qa/QA + Qb/QB ([2]; guanidine and IPBC): 1.00
- Synergy index Qa/QA + Qb/QB ([2]; guanidine and MBIT): 1.00
- Synergy index Qa/QA + Qb/QB ([2]; guanidine and MEA): 1.00
- Synergy index Qa/QA + Qb/QB ([2]; guanidine and MIT): 1.00
- Synergy index Qa/QA + Qb/QB ([2]; guanidine and OIT): 1.00
- Synergy index Qa/QA + Qb/QB ([2]; guanidine and benzoic acid, pH 5.5): 1.00
- Synergy index Qa/QA + Qb/QB ([2]; guanidine and benzyl alcohol): 1.00
- Synergy index Qa/QA + Qb/QB ([2]; guanidine and bronopol): 1.00
- Synergy index Qa/QA + Qb/QB ([2]; guanidine and citric acid, pH 5.5): 1.00
- Synergy index Qa/QA + Qb/QB ([2]; guanidine and heptane-1,2-diol): 1.00
- Synergy index Qa/QA + Qb/QB ([2]; guanidine and hexane-1,2-diol): 1.00
- Synergy index Qa/QA + Qb/QB ([2]; guanidine and hexylglycerol): 1.00
- Synergy index Qa/QA + Qb/QB ([2]; guanidine and isopropanol): 1.00
- Synergy index Qa/QA + Qb/QB ([2]; guanidine and lactic acid, pH 5.5): 1.00
- Synergy index Qa/QA + Qb/QB ([2]; guanidine and oPP): 1.00
- Synergy index Qa/QA + Qb/QB ([2]; guanidine and octane-1,2-diol): 1.00
- Synergy index Qa/QA + Qb/QB ([2]; guanidine and pentane-1,2-diol): 1.00
- Synergy index Qa/QA + Qb/QB ([2]; guanidine and phenethyl alcohol): 1.00
- Synergy index Qa/QA + Qb/QB ([2]; guanidine and phenoxyethanol): 1.00
- Synergy index Qa/QA + Qb/QB ([2]; guanidine and phenylpropanol): 1.00
- Synergy index Qa/QA + Qb/QB ([2]; guanidine and pyrithione): 1.00
- Synergy index Qa/QA + Qb/QB ([2]; guanidine and salicylic acid, pH 5.5): 1.00
- Synergy index Qa/QA + Qb/QB ([2]; guanidine and sorbic acid, pH 5.5): 1.00
